# From patent EP0646579A1, “Ketonic indane derivatives and heterocyclic analysis and their use in therapy” (LABORATOIRE INNOTHERA Société Anonyme, priority 1993, dated 1995)
# pEC50: −log10 of the molar value.
# How the values were obtained:
# [1] = test system: hyperperméabilité vasculaire induite par le zymosan; test: Vascular hyperpermeability induced by zymosan, in vivo; conditions: oral administration of 1-20 mg/kg
# Description: La perméabilité vasculaire est étudiée in vivo et in vitro par la mesure de l'extravasation d'albumine ou de colorant liant l'albumine (Bleu Evans). In vivo, l'hyperperméabilité est induite par l'injection d'une solution d'histamine, de bradykinine ou de zymosan. Les modèles in vitro permettent de réaliser des hyperpressions (sur un territoire vasculaire isolé) et/ou des réactions vasculaires inflammatoires.
# A titre illustratif, les composés des exemples 1, 2, 3, 5 inhibent l'hyperperméabilité vasculaire induite par le zymosan après administration orale de 1-20 mg/kg.
# veines saphènes de lapin = test: Contraction of isolated rabbit saphenous veins produced by KCl (40 mM); format: cell-based; conditions: for augmentation des contractions des veines saphènes de lapin produites par le KCl: KCl 40 mM, compounds 10 nM à 30 mM; for pEC50: increase of KCl (40 mM) contraction of rabbit saphenous veins, read-out: DE₅₀
# Description: L'effet contractile est mesuré in vitro : • par la force de contraction développée par des anneaux vasculaires quiescents ou stimulés (soit électriquement soit par des agents physiologiques) et maintenus dans des conditions isométriques, • par la pression développée par des réseaux vasculaires perfusés à débit constant.
# Les composés de formule (I) et leurs sels éventuels augmentent la contraction des veines saphènes animales produite par la noradrénaline et la dépolarisation (solution hyperpotassique) sans affecter, dans la majorité des cas, les réponses contractiles artérielles. A titre illustratif, les composés des exemples 1, 2, 3, 5 (10 nM à 30 mM) augmentent de plus de 40 % (DE₅₀ + 0,3 microM) les contractions des veines saphènes de lapin produites par le KCl (40 mM).
# [2] = Free radical scavenging, DPPH model; format: biochemical; conditions: DPPH as stable free radical, in vitro
# Description: L'effet "piégeur de radicaux libres" global est étudié in vitro par un modèle utilisant le 1,1-diphényl-2-picrylhydrazyl (DPPH) comme radical libre stable, méthode dérivée de celle décrite par Lamaison et col., Plantes Médic. et Phytothérapie, XXII, 1988, 231-234.
# rat = test: Carrageenan-induced pleurisy in the rat; format: in vivo; conditions: 5 mg/kg i.p. twice; for migration leucocytaire dans la cavité pleurale: 6 hours after carrageenan injection; for oedème: 6 hours after carrageenan injection into the pleural cavity
# Description: L'activité antiinflammatoire est démontrée par la mesure de l'inhibition de l'oedème et de la migration leucocytaire après induction d'une pleurésie chez le rat par injection de carragénine dans la cavité pleurale (Almeida et col., J. Pharmacol. Exp. Therap., 1980, 214 : 74).
# Le composé des exemples 31, 3, 5 administrés deux fois en i.p. à la dose de 5 mg/kg inhibent l'oedème et la migration leucocytaire dans la cavité pleurale, 6 heures après injection de carragénine dans le modèle de la pleurésie chez le rat.
pEC50 (veines saphènes de lapin),SMILES,hyperperméabilité vasculaire induite par le zymosan [1],augmentation des contractions des veines saphènes de lapin produites par le KCl (veines saphènes de lapin),effet antiradicalaire [2],migration leucocytaire dans la cavité pleurale (rat),oedème (rat)
~6.52,"O=c1c(=NNc2nc3ccccc3[nH]2)c(=O)c2ccccc12 [exemple 3, 2-(Benzimidazol-2-yl-hydrazono)-2.3-dihydro-1.3-dioxo-1H-indene]",inhibent,> 40%,,inhibent,inhibent
~6.52,"O=c1c(=NNc2nc3cnccc3[nH]2)c(=O)c2ccccc12 [exemple 5, 2-(5-Azabenzimidazol-2-yl-hydrazono)-2.3-dihydro-1.3-dioxo-1H-indene]",inhibent,> 40%,,inhibent,inhibent

# The next lines start with the compound.
SMILES,pEC50 (veines saphènes de lapin),hyperperméabilité vasculaire induite par le zymosan [1],augmentation des contractions des veines saphènes de lapin produites par le KCl (veines saphènes de lapin),effet antiradicalaire [2],migration leucocytaire dans la cavité pleurale (rat),oedème (rat)
"O=c1c(=NNc2nc3ccccc3s2)c(=O)c2ccccc12 [exemple 1, 2-(Benzothiazol-2-yl-hydrazono)-2.3-dihydro-1.3-dioxo-1H-indene]",~6.52,inhibent,> 40%,,,
"O=c1c(=NNc2nc3ccccc3o2)c(=O)c2ccccc12 [exemple 2, 2-(Benzoxazol-2-yl-hydrazono)-2.3-dihydro-1.3-dioxo-1H-indene]",~6.52,inhibent,> 40%,effet antiradicalaire,,
"O=C(NN=c1c(=O)c2cccnc2c1=O)Nc1ccccc1 [exemple 6, 5.7-Dioxo-6-(phenylaminocarbonylhydrazono)cyclopenta[b]pyridine]",,,,effet antiradicalaire,,
